Experimental data from the supplement of paper PMC8967900.

How the values were obtained:
Assay in all cases: selective drug sensitivity score (sDSS, relative to normal bone marrow) (sDSS (score)); higher = more potent and effective on the cell line relative to normal bone marrow cells
Conditions in all cases: 72 h
HAL-01 = tested on: HAL-01
JURKAT = tested on: JURKAT
PEER = tested on: PEER
KASUMI-9 = tested on: KASUMI-9
COG-LL-317 = tested on: COG-LL-317
697 = tested on: 697
MHH-CALL-4 = tested on: MHH-CALL-4
ALL-PO = tested on: ALL-PO
MN-60 = tested on: MN-60
MOLT-16 = tested on: MOLT-16
COG-LL-319h = tested on: COG-LL-319h
SUP-B15 = tested on: SUP-B15
SEM cells = tested on: SEM cells
P30-OHKUBO = tested on: P30-OHKUBO
TMD5 = tested on: TMD5
COG-LL-355h = tested on: COG-LL-355h
CCRF-HSB2 = tested on: CCRF-HSB2
LC4-1 = tested on: LC4-1
TANOUE = tested on: TANOUE
KOPN-8 = tested on: KOPN-8
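Also: ALL cell lines in 384-well plates, five doses spanning 10,000-fold, each plate scaled between vehicle and 100 µmol/L benzalkonium chloride controls, sDSS an adapted area-under-curve metric.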

SMILES: C[C@@H]1CN(CC(=O)Nc2ccc3c(c2)Cc2cccc(-c4cc(=O)cc(N5CCOCC5)o4)c2S3)C[C@H](C)O1 (top concentration 25000 nM)
- selective drug sensitivity score (HAL-01): -0.18
- selective drug sensitivity score (JURKAT): 0.92
- selective drug sensitivity score (PEER): 2.62
- selective drug sensitivity score (KASUMI-9): 1.22
- selective drug sensitivity score (COG-LL-317): -1.78
- selective drug sensitivity score 697: 0.42
- selective drug sensitivity score (MHH-CALL-4): 0.12
- selective drug sensitivity score (ALL-PO): 2.02
- selective drug sensitivity score (MN-60): -2.18
- selective drug sensitivity score (MOLT-16): 0.32
- selective drug sensitivity score (COG-LL-319h): 6.72
- selective drug sensitivity score (SUP-B15): -0.58
- selective drug sensitivity score (SEM cells): 2.22
- selective drug sensitivity score (P30-OHKUBO): 3.42
- selective drug sensitivity score (TMD5): -2.18
- selective drug sensitivity score (COG-LL-355h): 3.02
- selective drug sensitivity score (CCRF-HSB2): 0.42
- selective drug sensitivity score (LC4-1): 4.12
- selective drug sensitivity score (TANOUE): -2.18
- selective drug sensitivity score (KOPN-8): 5.72

SMILES: COc1ccc2[nH]cc(/C=C3\C(=O)Nc4ccc(NC(=O)CCN5CCCCC5)cc43)c2c1 (top concentration 50000 nM)
- selective drug sensitivity score (HAL-01): -3.42
- selective drug sensitivity score (JURKAT): -3.22
- selective drug sensitivity score (PEER): 2.18
- selective drug sensitivity score (KASUMI-9): 1.28
- selective drug sensitivity score (COG-LL-317): 2.58
- selective drug sensitivity score 697: -0.02
- selective drug sensitivity score (MHH-CALL-4): -1.82
- selective drug sensitivity score (ALL-PO): 5.18
- selective drug sensitivity score (MN-60): 0.28
- selective drug sensitivity score (MOLT-16): -2.32
- selective drug sensitivity score (COG-LL-319h): -4.42
- selective drug sensitivity score (SUP-B15): 2.48
- selective drug sensitivity score (SEM cells): 2.18
- selective drug sensitivity score (P30-OHKUBO): 0.38
- selective drug sensitivity score (TMD5): 0.28
- selective drug sensitivity score (COG-LL-355h): 0.28
- selective drug sensitivity score (CCRF-HSB2): 6.68
- selective drug sensitivity score (LC4-1): -0.42
- selective drug sensitivity score (TANOUE): -2.22
- selective drug sensitivity score (KOPN-8): 1.38

SMILES: Cc1nn(C)c(COc2ccc(N3CCN(S(=O)(=O)N(C)C)CC3)cc2)c1-c1cccc2c(CCCOc3cccc4ccccc34)c(C(=O)O)n(CCN3CCOCC3)c12 (top concentration 50000 nM)
- selective drug sensitivity score (HAL-01): 2.46
- selective drug sensitivity score (JURKAT): 5.86
- selective drug sensitivity score (PEER): 10.2
- selective drug sensitivity score (KASUMI-9): 5.66
- selective drug sensitivity score (COG-LL-317): 2.16
- selective drug sensitivity score 697: 4.36
- selective drug sensitivity score (MHH-CALL-4): 5.06
- selective drug sensitivity score (ALL-PO): 8.86
- selective drug sensitivity score (MN-60): 3.16
- selective drug sensitivity score (MOLT-16): 12.6
- selective drug sensitivity score (COG-LL-319h): 5.26
- selective drug sensitivity score (SUP-B15): 8.16
- selective drug sensitivity score (SEM cells): 4.96
- selective drug sensitivity score (P30-OHKUBO): 4.46
- selective drug sensitivity score (TMD5): 4.26
- selective drug sensitivity score (COG-LL-355h): 15.3
- selective drug sensitivity score (CCRF-HSB2): 5.36
- selective drug sensitivity score (LC4-1): 6.56
- selective drug sensitivity score (TANOUE): 2.56
- selective drug sensitivity score (KOPN-8): 10.1

SMILES: C[C@H](Nc1ncnc2[nH]cnc12)c1cc2ccc(F)cc2nc1-c1ccccn1 [AMG319] (top concentration 1000 nM)
- selective drug sensitivity score (HAL-01): 10.4
- selective drug sensitivity score (JURKAT): -1.42
- selective drug sensitivity score (PEER): -1.42
- selective drug sensitivity score (KASUMI-9): 1.18
- selective drug sensitivity score (COG-LL-317): -1.42
- selective drug sensitivity score 697: 0.18
- selective drug sensitivity score (MHH-CALL-4): 0.68
- selective drug sensitivity score (ALL-PO): -1.42
- selective drug sensitivity score (MN-60): -1.42
- selective drug sensitivity score (MOLT-16): -1.42
- selective drug sensitivity score (COG-LL-319h): 10.1
- selective drug sensitivity score (SUP-B15): 0.48
- selective drug sensitivity score (SEM cells): -1.42
- selective drug sensitivity score (P30-OHKUBO): 4.08
- selective drug sensitivity score (TMD5): -1.42
- selective drug sensitivity score (COG-LL-355h): 4.58
- selective drug sensitivity score (CCRF-HSB2): -1.32
- selective drug sensitivity score (LC4-1): -1.42
- selective drug sensitivity score (TANOUE): -0.12
- selective drug sensitivity score (KOPN-8): 6.38

SMILES: C=CCn1c(=O)c2cnc(Nc3ccc(N4CCN(C)CC4)cc3)nc2n1-c1cccc(C(C)(C)O)n1 [AZD1775] (top concentration 10000 nM)
- selective drug sensitivity score (HAL-01): 8.34
- selective drug sensitivity score (JURKAT): 11.3
- selective drug sensitivity score (PEER): 12.2
- selective drug sensitivity score (KASUMI-9): 14.6
- selective drug sensitivity score (COG-LL-317): 20.5
- selective drug sensitivity score 697: 15.4
- selective drug sensitivity score (MHH-CALL-4): 1.94
- selective drug sensitivity score (ALL-PO): 7.04
- selective drug sensitivity score (MN-60): 2.74
- selective drug sensitivity score (MOLT-16): 17.5
- selective drug sensitivity score (COG-LL-319h): 18.8
- selective drug sensitivity score (SUP-B15): 14.7
- selective drug sensitivity score (SEM cells): 14.1
- selective drug sensitivity score (P30-OHKUBO): 13.7
- selective drug sensitivity score (TMD5): 4.94
- selective drug sensitivity score (COG-LL-355h): 7.24
- selective drug sensitivity score (CCRF-HSB2): 13.6
- selective drug sensitivity score (LC4-1): 13.7
- selective drug sensitivity score (TANOUE): -1.66
- selective drug sensitivity score (KOPN-8): 14.1

SMILES: NC(=O)Nc1cc(-c2cccc(F)c2)sc1C(=O)N[C@H]1CCCNC1 [AZD7762] (top concentration 1000 nM)
- selective drug sensitivity score (HAL-01): 3.5
- selective drug sensitivity score (JURKAT): -0.7
- selective drug sensitivity score (PEER): -0.7
- selective drug sensitivity score (KASUMI-9): 4.1
- selective drug sensitivity score (COG-LL-317): 7.6
- selective drug sensitivity score 697: 2.6
- selective drug sensitivity score (MHH-CALL-4): 0.3
- selective drug sensitivity score (ALL-PO): 9.2
- selective drug sensitivity score (MN-60): -4.9
- selective drug sensitivity score (MOLT-16): -1.5
- selective drug sensitivity score (COG-LL-319h): 2.8
- selective drug sensitivity score (SUP-B15): -0.4
- selective drug sensitivity score (SEM cells): 19
- selective drug sensitivity score (P30-OHKUBO): 3.3
- selective drug sensitivity score (TMD5): -1.1
- selective drug sensitivity score (COG-LL-355h): -0.1
- selective drug sensitivity score (CCRF-HSB2): 8.2
- selective drug sensitivity score (LC4-1): -0.5
- selective drug sensitivity score (TANOUE): -5
- selective drug sensitivity score (KOPN-8): 3.4

SMILES: Cc1cc([C@@H](C)Nc2ccccc2C(=O)O)c2nc(N3CCOCC3)cc(=O)n2c1 [AZD-6482] (top concentration 2500 nM)
- selective drug sensitivity score (HAL-01): 6.62
- selective drug sensitivity score (JURKAT): -0.28
- selective drug sensitivity score (PEER): -0.28
- selective drug sensitivity score (KASUMI-9): 5.82
- selective drug sensitivity score (COG-LL-317): -0.18
- selective drug sensitivity score 697: 3.12
- selective drug sensitivity score (MHH-CALL-4): 1.92
- selective drug sensitivity score (ALL-PO): 3.92
- selective drug sensitivity score (MN-60): 0.02
- selective drug sensitivity score (MOLT-16): -0.28
- selective drug sensitivity score (COG-LL-319h): 13.6
- selective drug sensitivity score (SUP-B15): 2.22
- selective drug sensitivity score (SEM cells): 1.92
- selective drug sensitivity score (P30-OHKUBO): 9.12
- selective drug sensitivity score (TMD5): -0.28
- selective drug sensitivity score (COG-LL-355h): 6.92
- selective drug sensitivity score (CCRF-HSB2): 2.12
- selective drug sensitivity score (LC4-1): 3.42
- selective drug sensitivity score (TANOUE): 0.02
- selective drug sensitivity score (KOPN-8): 8.22

SMILES: CN(C)Cc1c(C(=O)NCCOc2ccc(C(=O)NO)cc2)oc2ccccc12 [Abexinostat] (top concentration 10000 nM)
- selective drug sensitivity score (HAL-01): -0.44
- selective drug sensitivity score (JURKAT): 1.66
- selective drug sensitivity score (PEER): 6.16
- selective drug sensitivity score (KASUMI-9): 8.26
- selective drug sensitivity score (COG-LL-317): 2.36
- selective drug sensitivity score 697: 6.96
- selective drug sensitivity score (MHH-CALL-4): 6.36
- selective drug sensitivity score (ALL-PO): 6.76
- selective drug sensitivity score (MN-60): -3.04
- selective drug sensitivity score (MOLT-16): 5.66
- selective drug sensitivity score (COG-LL-319h): 8.36
- selective drug sensitivity score (SUP-B15): 6.26
- selective drug sensitivity score (SEM cells): 5.46
- selective drug sensitivity score (P30-OHKUBO): 5.56
- selective drug sensitivity score (TMD5): 5.36
- selective drug sensitivity score (COG-LL-355h): 3.36
- selective drug sensitivity score (CCRF-HSB2): 6.36
- selective drug sensitivity score (LC4-1): 4.36
- selective drug sensitivity score (TANOUE): -7.54
- selective drug sensitivity score (KOPN-8): 9.26

SMILES: S=C(NCc1ccc2c(c1)OCO2)N1CCN(c2ncnc3c2oc2ccccc23)CC1 [Amuvatinib] (top concentration 10000 nM)
- selective drug sensitivity score (HAL-01): 2.96
- selective drug sensitivity score (JURKAT): 11.1
- selective drug sensitivity score (PEER): 9.36
- selective drug sensitivity score (KASUMI-9): 1.26
- selective drug sensitivity score (COG-LL-317): 0.96
- selective drug sensitivity score 697: 7.86
- selective drug sensitivity score (MHH-CALL-4): 2.16
- selective drug sensitivity score (ALL-PO): 1.16
- selective drug sensitivity score (MN-60): 5.46
- selective drug sensitivity score (MOLT-16): 8.36
- selective drug sensitivity score (COG-LL-319h): 5.96
- selective drug sensitivity score (SUP-B15): 5.46
- selective drug sensitivity score (SEM cells): 2.26
- selective drug sensitivity score (P30-OHKUBO): 4.26
- selective drug sensitivity score (TMD5): 4.16
- selective drug sensitivity score (COG-LL-355h): 2.06
- selective drug sensitivity score (CCRF-HSB2): 3.96
- selective drug sensitivity score (LC4-1): 4.56
- selective drug sensitivity score (TANOUE): 6.16
- selective drug sensitivity score (KOPN-8): 8.76

SMILES: CC(=O)OC[C@H]1O[C@@H]([S-])[C@H](OC(C)=O)[C@@H](OC(C)=O)[C@@H]1OC(C)=O.CCP(CC)CC.[Au+] [Auranofin] (top concentration 2500 nM)
- selective drug sensitivity score (HAL-01): 6.44
- selective drug sensitivity score (JURKAT): -1.76
- selective drug sensitivity score (PEER): 0.74
- selective drug sensitivity score (KASUMI-9): 3.94
- selective drug sensitivity score (COG-LL-317): 3.44
- selective drug sensitivity score 697: 1.94
- selective drug sensitivity score (MHH-CALL-4): 7.34
- selective drug sensitivity score (ALL-PO): 0.34
- selective drug sensitivity score (MN-60): -2.76
- selective drug sensitivity score (MOLT-16): 1.74
- selective drug sensitivity score (COG-LL-319h): 8.24
- selective drug sensitivity score (SUP-B15): 12.6
- selective drug sensitivity score (SEM cells): 1.34
- selective drug sensitivity score (P30-OHKUBO): 4.84
- selective drug sensitivity score (TMD5): 3.84
- selective drug sensitivity score (COG-LL-355h): 6.34
- selective drug sensitivity score (CCRF-HSB2): -1.86
- selective drug sensitivity score (LC4-1): 6.34
- selective drug sensitivity score (TANOUE): -1.06
- selective drug sensitivity score (KOPN-8): 11.6
